Results: patent US11529356B2, “2-(morpholin-4-yl)-1,7-naphthyridines” (Bayer Pharma Aktiengesellschaft, priority 2014, dated 2022)

What was measured:
[1] = tested on: Caco-2 cells; assay: Proliferation Assay Caco-2 (crystal violet); type: cell-based; conditions: Homo sapiens, Caco-2, Caco-2 cells; read-out: Inhibition of Caco-2 cell proliferation IC50
Protocol: After 24 hours, the cells of one plate (zero plate) were dyed with crystal violet (see below), whereas the medium of the other plates was replaced with fresh culture medium (200 μl) to which the test substances were added in various concentrations (0 μM, and also in the range of 0.001-10 μM; the final concentration of the solvent dimethyl sulphoxide was 0.1 or 0.5%). The cells were incubated for 4 days in the presence of the test substances. […] After washing the fixed cells three times with water, the plates were dried at room temperature. The cells were stained by adding 100 μl/measurement point of a 0.1% strength crystal violet solution (pH adjusted to pH 3 by adding acetic acid). After washing the cells three times with water, the plates were dried at room temperature. The dye was dissolved by adding 100 μl/measurement point of a 10% strength acetic acid solution. […] The percentage change in cell growth was calculated by normalizing the measured values to the absorbance values of the zero plate (=0%) and the absorbance of the untreated (0 μM) cells (=100%). The IC50 values were determined by means of a four parameter fit.

[2] = target: full-length human ATR protein (Homo sapiens (Human), UniProt Q13535); assay: Binding Assay ATR (TR-FRET tracer displacement); conditions: tracer A
Chain of full-length human ATR protein (Q13535 other isoform, or with tags, fused parts or gaps): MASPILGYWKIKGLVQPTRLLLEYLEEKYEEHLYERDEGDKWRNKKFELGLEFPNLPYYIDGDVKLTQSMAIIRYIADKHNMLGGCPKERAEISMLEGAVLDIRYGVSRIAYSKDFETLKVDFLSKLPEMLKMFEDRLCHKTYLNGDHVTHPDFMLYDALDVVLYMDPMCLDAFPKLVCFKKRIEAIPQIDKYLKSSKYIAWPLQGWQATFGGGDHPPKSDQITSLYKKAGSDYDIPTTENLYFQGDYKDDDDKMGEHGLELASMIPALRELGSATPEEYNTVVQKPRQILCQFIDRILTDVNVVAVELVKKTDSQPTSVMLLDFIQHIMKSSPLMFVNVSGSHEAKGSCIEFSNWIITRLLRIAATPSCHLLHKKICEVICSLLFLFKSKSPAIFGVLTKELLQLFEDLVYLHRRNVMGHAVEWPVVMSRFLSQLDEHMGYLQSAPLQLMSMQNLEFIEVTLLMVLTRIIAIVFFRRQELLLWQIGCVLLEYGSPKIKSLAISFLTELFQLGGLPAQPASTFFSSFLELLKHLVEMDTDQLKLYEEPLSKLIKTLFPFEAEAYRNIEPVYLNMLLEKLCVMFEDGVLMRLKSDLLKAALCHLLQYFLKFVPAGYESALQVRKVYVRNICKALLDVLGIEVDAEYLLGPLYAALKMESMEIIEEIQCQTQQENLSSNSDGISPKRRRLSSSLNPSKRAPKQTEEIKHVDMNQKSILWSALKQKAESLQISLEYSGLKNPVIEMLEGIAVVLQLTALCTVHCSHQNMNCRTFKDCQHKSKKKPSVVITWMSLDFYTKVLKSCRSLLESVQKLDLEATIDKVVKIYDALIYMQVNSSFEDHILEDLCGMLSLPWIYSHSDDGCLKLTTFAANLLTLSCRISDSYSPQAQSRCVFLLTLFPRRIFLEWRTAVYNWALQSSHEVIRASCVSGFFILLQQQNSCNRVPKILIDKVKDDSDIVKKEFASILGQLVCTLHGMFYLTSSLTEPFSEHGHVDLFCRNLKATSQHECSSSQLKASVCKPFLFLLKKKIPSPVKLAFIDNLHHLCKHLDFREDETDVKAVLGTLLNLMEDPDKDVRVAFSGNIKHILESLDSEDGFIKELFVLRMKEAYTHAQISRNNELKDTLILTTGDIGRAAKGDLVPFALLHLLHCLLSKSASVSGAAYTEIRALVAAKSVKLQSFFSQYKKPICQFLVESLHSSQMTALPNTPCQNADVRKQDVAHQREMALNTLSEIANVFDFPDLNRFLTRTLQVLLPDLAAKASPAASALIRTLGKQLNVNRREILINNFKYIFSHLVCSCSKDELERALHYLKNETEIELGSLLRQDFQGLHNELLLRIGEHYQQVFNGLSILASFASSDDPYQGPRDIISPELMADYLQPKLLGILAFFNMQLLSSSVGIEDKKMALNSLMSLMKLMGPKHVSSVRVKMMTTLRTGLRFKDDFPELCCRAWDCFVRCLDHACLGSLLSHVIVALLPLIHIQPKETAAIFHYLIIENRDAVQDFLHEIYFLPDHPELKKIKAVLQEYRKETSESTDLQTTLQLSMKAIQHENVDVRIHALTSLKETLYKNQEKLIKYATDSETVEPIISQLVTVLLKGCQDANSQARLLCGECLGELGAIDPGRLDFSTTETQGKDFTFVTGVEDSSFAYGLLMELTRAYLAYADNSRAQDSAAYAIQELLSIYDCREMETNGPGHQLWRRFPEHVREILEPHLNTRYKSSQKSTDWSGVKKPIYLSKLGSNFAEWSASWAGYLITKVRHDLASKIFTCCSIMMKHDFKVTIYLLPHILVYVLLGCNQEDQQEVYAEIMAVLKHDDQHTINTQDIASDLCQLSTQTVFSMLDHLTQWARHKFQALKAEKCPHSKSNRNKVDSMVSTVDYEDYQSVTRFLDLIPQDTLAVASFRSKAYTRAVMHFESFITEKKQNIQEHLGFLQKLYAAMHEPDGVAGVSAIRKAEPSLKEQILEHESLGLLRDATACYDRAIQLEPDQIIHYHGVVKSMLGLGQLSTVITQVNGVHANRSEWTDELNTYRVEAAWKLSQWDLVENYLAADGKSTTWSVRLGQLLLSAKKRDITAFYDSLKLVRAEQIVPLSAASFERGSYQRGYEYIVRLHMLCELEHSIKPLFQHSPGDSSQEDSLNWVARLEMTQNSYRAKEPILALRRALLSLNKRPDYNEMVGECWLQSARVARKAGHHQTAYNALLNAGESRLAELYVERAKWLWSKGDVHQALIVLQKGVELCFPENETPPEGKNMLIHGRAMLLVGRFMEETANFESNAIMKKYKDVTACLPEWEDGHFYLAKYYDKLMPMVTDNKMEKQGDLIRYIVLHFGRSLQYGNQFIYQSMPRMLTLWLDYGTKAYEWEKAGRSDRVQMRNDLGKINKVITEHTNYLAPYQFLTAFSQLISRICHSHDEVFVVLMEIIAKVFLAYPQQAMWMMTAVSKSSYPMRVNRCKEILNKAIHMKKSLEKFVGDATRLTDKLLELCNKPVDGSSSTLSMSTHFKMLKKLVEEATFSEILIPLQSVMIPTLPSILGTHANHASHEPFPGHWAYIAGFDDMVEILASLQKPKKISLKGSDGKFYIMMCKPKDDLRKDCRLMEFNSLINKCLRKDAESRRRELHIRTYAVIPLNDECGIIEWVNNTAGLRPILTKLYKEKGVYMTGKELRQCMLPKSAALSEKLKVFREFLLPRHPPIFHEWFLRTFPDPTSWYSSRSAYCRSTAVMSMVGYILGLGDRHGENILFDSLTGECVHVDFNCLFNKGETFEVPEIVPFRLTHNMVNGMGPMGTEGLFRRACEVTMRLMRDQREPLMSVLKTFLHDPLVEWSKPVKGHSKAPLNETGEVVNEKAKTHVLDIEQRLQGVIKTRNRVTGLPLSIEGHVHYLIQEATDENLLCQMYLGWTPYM
Chain of full-length human ATR protein (Q8WXE1 other isoform, or with tags, fused parts or gaps partner): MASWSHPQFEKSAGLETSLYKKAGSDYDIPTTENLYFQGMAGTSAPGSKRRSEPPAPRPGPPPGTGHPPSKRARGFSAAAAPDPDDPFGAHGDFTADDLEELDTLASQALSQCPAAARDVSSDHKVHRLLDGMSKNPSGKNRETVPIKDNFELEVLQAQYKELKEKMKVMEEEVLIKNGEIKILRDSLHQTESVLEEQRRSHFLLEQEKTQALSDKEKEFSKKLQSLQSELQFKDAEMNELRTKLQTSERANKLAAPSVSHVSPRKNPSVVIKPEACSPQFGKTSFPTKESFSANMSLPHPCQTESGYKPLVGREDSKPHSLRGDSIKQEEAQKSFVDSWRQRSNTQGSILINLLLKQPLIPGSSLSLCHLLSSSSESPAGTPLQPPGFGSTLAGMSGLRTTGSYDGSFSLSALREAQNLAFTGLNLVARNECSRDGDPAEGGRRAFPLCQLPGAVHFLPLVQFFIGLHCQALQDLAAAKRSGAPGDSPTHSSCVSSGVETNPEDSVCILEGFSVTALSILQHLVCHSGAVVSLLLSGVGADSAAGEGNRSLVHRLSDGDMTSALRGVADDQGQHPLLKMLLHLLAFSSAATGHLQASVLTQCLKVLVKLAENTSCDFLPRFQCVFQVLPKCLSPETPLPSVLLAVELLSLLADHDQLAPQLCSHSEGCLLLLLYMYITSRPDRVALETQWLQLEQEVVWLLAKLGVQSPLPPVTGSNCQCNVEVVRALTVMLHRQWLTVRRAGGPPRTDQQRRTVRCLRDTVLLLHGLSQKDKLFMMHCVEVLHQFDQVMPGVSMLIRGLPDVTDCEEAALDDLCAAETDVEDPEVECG

Row | IC50 [1] [nM] | Structure (SMILES) | IC50 [2] [nM]
1 | > 3000 | Clc1cc(N2CCOCC2)nc2c(-c3cc[nH]n3)nccc12 [Example 62, 4-chloro-2-morpholin-4-yl-8-(1H-pyrazol-3-yl)-[1,7]naphthyridine] | 
2 |  | c1cc(-c2nccc3c(N4C[C@@H]5C[C@H]4CO5)cc(N4CCOCC4)nc23)[nH]n1 [Example 185, 2-(morpholin-4-yl)-4-[(1S,4S)-2-oxa-5-azabicyclo[2.2.1]hept-5-yl]-8-(1H-pyrazol-5-yl)-1,7-naphthyridine] | 852
